Source: patent US10640767B2, “Assay for exo-site binding molecules” (President and Fellows of Harvard College, priority 2016, dated 2020)

Target: T1, Recombinant His6-tagged IDE (Homo sapiens, UniProt P14735)
T1 construct: made in house; host or cells: E. coli Rosetta 2 (DE3) pLysS, plasmid pTrcHis-A
T1 sequence (P14735 42-1019): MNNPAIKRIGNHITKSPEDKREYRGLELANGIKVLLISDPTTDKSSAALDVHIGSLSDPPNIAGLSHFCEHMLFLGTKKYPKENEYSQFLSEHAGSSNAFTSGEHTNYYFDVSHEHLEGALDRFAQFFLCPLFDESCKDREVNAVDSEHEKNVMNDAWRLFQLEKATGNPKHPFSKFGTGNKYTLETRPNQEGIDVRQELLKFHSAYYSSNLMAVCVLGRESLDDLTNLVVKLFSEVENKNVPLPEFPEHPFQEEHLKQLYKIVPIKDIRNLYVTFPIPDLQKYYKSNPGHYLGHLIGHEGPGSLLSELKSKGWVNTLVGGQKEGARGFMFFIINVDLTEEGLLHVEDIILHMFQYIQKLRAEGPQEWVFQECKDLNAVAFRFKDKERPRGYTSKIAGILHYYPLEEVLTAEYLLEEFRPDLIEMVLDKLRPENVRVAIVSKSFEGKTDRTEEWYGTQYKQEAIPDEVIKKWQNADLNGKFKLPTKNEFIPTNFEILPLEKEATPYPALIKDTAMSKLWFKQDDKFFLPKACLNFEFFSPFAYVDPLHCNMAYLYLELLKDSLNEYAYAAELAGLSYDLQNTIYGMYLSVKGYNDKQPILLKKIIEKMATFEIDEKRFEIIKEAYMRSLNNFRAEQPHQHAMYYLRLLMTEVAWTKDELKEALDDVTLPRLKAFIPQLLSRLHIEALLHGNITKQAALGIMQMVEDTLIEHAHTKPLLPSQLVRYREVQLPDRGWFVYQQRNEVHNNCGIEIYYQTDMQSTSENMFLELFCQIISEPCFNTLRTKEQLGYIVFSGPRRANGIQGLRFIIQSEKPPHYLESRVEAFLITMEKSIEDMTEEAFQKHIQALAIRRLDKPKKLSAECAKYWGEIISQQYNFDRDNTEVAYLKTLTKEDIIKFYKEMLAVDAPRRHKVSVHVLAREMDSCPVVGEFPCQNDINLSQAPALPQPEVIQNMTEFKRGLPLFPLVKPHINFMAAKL
Assay: IDE protease activity assay with fluorogenic peptide substrate Mca-RPPGFSAFK(Dnp)-OH
Assay type: biochemical
Conditions: inhibitor 20 μM final; purified recombinant His6-tagged IDE proteins
Experimental: Recombinant His6-tagged IDE and IDE-A479L were purified by Ni(II)-affinity chromatography (IMAC sepharose beads, GE Healthcare®) according to the manufacturer's instructions. The cell pellets were resuspended in pH 8.0 buffer containing 50 mM phosphate, 300 mM NaCl, 10 mM imidazole, 1% Triton X-100 and 1 mM tris(2-carboxyethyl)phosphine hydrochloride (TCEP), and were lysed by probe sonication for 4 min at <4° C., followed by clearing of cell debris by centrifugation at 10,000 g for 25 min at 4° C. The supernatant was incubated with Ni(II)-doped IMAC resin (2 mL) for 3 h at 4° C. The resin was washed twice with the cell resuspension/lysis buffer, and three times with pH 8.0 buffer containing 50 mM phosphate, 300 mM NaCl, 50 mM imidazole and 1 mM TCEP. Elution was performed in 2 mL aliquots by raising the imidazole concentration to 250 mM and subsequently to 500 mM in the previous buffer. The fractions were combined and the buffer was exchanged to the recommended IDE buffer (R&D) using spin columns with 100 KDa molecular weight cut off membranes (Millipore). Protein yields were typically ˜10 μg/L, and >90% purity based on gel electrophoresis analysis (Coomassie stained).

With `NCCCC[C@@H]1NC(=O)/C=C/C(=O)N[C@H](C(N)=O)CCCCNC(=O)[C@@H](Cc2ccc(C(=O)c3ccccc3)cc2)NC(=O)[C@H](CC2CCCCC2)NC1=O` [6bK] the “IDE-specific protease activity as assessed by inhibition of degradation of peptide substrate Mca-RPPGFSAFK(Dnp)-OH” value was > 95%.
